Experimental data: BindingDB's records for doi:10.1021/jm101621u (University of Utah, 2011)
Square brackets hold non-standard residues; d marks the D form. Peptide text beside a SMILES is read from it. d(aThr) = C[C@@H](O)[C@@H](N)C(=O)O; Dhb = C/C=C(\N)C(=O)O

Target: Transient receptor potential cation channel subfamily V member 1 (Homo sapiens, UniProt Q8NER1)
Experiment: Antagonist activity at human TRPV1 expressed in HEK293 cell assessed as inhibition of capsaicin-induced calcium flux by fluorometric analysis

Chain of Transient receptor potential cation channel subfamily V member 1 (Q8NER1 whole entry): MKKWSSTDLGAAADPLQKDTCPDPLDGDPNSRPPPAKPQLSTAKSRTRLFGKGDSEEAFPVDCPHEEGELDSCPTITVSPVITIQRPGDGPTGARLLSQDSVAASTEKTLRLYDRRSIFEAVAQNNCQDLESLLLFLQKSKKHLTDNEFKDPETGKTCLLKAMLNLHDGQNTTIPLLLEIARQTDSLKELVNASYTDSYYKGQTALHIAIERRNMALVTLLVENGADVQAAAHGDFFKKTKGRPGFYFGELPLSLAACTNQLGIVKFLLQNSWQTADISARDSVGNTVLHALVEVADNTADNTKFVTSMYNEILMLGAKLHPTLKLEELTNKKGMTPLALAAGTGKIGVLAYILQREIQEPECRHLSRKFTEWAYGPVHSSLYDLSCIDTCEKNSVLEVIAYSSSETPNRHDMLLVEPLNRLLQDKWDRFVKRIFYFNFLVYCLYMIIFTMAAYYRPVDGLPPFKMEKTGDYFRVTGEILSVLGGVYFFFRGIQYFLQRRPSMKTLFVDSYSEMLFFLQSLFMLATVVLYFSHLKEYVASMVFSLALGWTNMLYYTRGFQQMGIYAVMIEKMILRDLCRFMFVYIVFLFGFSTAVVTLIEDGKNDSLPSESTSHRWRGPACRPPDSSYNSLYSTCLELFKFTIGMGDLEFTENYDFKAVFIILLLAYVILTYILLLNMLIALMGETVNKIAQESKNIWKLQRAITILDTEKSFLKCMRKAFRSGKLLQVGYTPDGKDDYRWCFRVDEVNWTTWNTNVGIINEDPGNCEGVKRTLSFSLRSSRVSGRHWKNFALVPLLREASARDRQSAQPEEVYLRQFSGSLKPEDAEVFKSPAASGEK

IC50: 1660 µM
Compound: C/C=C(\NC(=O)[C@H](C)NC(=O)[C@@H](NC(=O)[C@H](NC(=O)[C@H](Cc1ccccc1)NC(=O)[C@@H](CC(C)C)NC(=O)[C@@H](Cc1ccccc1)NC(C)=O)[C@@H](C)O)C(C)C)C(=O)O [Nobilamide A] (Ac-[dF][dL]F[d(aThr)]VA[Dhb]-OH)
